Measurements reported in ChEMBL document CHEMBL1201862, “PubChem BioAssay data set” (2004).
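A five-concentration, 48-hour dose response in 96-well plates underlies each endpoint, interpolated linearly between surrounding concentrations. At the GI50, growth is halved.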 Active and inactive are the calls of the source. No stated cut-off is given here; in the data, active = GI50 up to about 1.1 µM and inactive = higher.

Legend:
Assay in all cases: DTP human tumour cell line panel, 48 h
SW-620 = tested on: SW-620
NCI/ADR-RES = tested on: NCI/ADR-RES
BT-549 = tested on: BT-549
Hs-578T = tested on: Hs-578T
MDA-MB-231 = tested on: MDA-MB-231
NCI-H226 = tested on: NCI-H226
NCI-H23 = tested on: NCI-H23
HOP-92 = tested on: HOP-92
EKVX = tested on: EKVX
MDA-MB-435 = tested on: MDA-MB-435
OVCAR-5 = tested on: OVCAR-5
MCF7 = tested on: MCF7
UACC-257 = tested on: UACC-257
SR = tested on: SR
SF-268 = tested on: SF-268
OVCAR-4 = tested on: OVCAR-4
CAKI-1 = tested on: CAKI-1
LOX IMVI = tested on: LOX IMVI
A549 = tested on: A549
IGROV-1 = tested on: IGROV-1
RXF 393 = tested on: RXF 393
HCC 2998 = tested on: HCC 2998
UACC-62 = tested on: UACC-62
SF-295 = tested on: SF-295
UO-31 = tested on: UO-31
SNB-75 = tested on: SNB-75
SK-MEL-5 = tested on: SK-MEL-5
T47D = tested on: T47D
HCT-15 = tested on: HCT-15
OVCAR-8 = tested on: OVCAR-8
MOLT-4 = tested on: MOLT-4
SNB-19 = tested on: SNB-19
NCI-H522 = tested on: NCI-H522
SN12C = tested on: SN12C
ACHN = tested on: ACHN
HT-29 = tested on: HT-29
DU-145 = tested on: DU-145
HCT-116 = tested on: HCT-116
SK-OV-3 = tested on: SK-OV-3
U-251 = tested on: U-251
COLO 205 = tested on: COLO 205
786-0 = tested on: 786-0
SF-539 = tested on: SF-539
RPMI-8226 = tested on: RPMI-8226
TK-10 = tested on: TK-10
K562 = tested on: K562
A498 = tested on: A498
KM12 = tested on: KM12
M14 = tested on: M14
CCRF-CEM = tested on: CCRF-CEM
SK-MEL-28 = tested on: SK-MEL-28
OVCAR-3 = tested on: OVCAR-3
HOP-62 = tested on: HOP-62
SK-MEL-2 = tested on: SK-MEL-2
Malme-3M = tested on: Malme-3M
PC-3 = tested on: PC-3
HL-60 = tested on: HL-60
NCI-H460 = tested on: NCI-H460

For Cc1oc2nc(N(C)C)n3c(C)nnc3c2c1C, the GI50 (SW-620) was > 100 µM (inactive), the GI50 (NCI/ADR-RES) was > 100 µM (inactive) and the GI50 (BT-549) was > 100 µM (inactive). The GI50 (Hs-578T) was > 100 µM (inactive), the GI50 (MDA-MB-231) was > 100 µM (inactive) and the GI50 (NCI-H226) was > 100 µM (inactive). For the same compound, the GI50 (NCI-H23) was > 100 µM (inactive), the GI50 (HOP-92) was > 100 µM (inactive) and the GI50 (EKVX) was > 100 µM (inactive). For the same compound, the GI50 (MDA-MB-435) was > 100 µM (inactive), the GI50 (OVCAR-5) was > 100 µM (inactive) and the GI50 (MCF7) was > 100 µM (inactive). The GI50 (UACC-257) was > 100 µM (inactive), the GI50 (SR) was > 100 µM (inactive) and the GI50 (SF-268) was > 100 µM (inactive). The GI50 (OVCAR-4) was > 100 µM (inactive), the GI50 (CAKI-1) was > 100 µM (inactive) and the GI50 (LOX IMVI) was > 100 µM (inactive). For the same compound, the GI50 (A549) was > 100 µM (inactive), the GI50 (IGROV-1) was > 100 µM (inactive) and the GI50 (RXF 393) was > 100 µM (inactive). The GI50 (HCC 2998) was > 100 µM (inactive), the GI50 (UACC-62) was > 100 µM (inactive) and the GI50 (SF-295) was > 100 µM (inactive). For the same compound, the GI50 (UO-31) was > 100 µM (inactive), the GI50 (SNB-75) was > 100 µM (inactive) and the GI50 (SK-MEL-5) was > 100 µM (inactive). The GI50 (T47D) was > 100 µM (inactive), the GI50 (HCT-15) was over 100 µM and the GI50 (OVCAR-8) was > 100 µM (inactive). For the same compound, the GI50 (MOLT-4) was > 100 µM (inactive), the GI50 (SNB-19) was > 100 µM (inactive) and the GI50 (NCI-H522) was > 100 µM (inactive). The GI50 (SN12C) was > 100 µM (inactive), the GI50 (ACHN) was > 100 µM (inactive) and the GI50 (HT-29) was > 100 µM (inactive). The GI50 (DU-145) was > 100 µM (inactive), the GI50 (HCT-116) was > 100 µM (inactive) and the GI50 (SK-OV-3) was > 100 µM (inactive). For the same compound, the GI50 (U-251) was > 100 µM (inactive), the GI50 (COLO 205) was > 100 µM (inactive) and the GI50 (786-0) was > 100 µM (inactive). For the same compound, the GI50 (SF-539) was > 100 µM (inactive), the GI50 (RPMI-8226) was > 100 µM (inactive) and the GI50 (TK-10) was > 100 µM (inactive). The GI50 (K562) was > 100 µM (inactive), the GI50 (A498) was > 100 µM (inactive) and the GI50 (KM12) was > 100 µM (inactive). For the same compound, the GI50 (M14) was > 100 µM (inactive), the GI50 (CCRF-CEM) was > 100 µM (inactive) and the GI50 (SK-MEL-28) was > 100 µM (inactive).

In the case of O=c1[nH]ncc2[nH]c3c(c12)CCc1ccccc1-3, the GI50 (SW-620) is reported as 34.4 µM (inactive), the GI50 (NCI/ADR-RES) is reported as 40.4 µM (inactive) and the GI50 (BT-549) is reported as 35.5 µM (inactive). The GI50 (Hs-578T) was 10.4 µM (inactive), the GI50 (MDA-MB-231) was 37.9 µM (inactive) and the GI50 (NCI-H226) was 13.5 µM (inactive). For the same compound, the GI50 (NCI-H23) was 39.4 µM (inactive), the GI50 (HOP-92) was 30.9 µM (inactive) and the GI50 (OVCAR-3) was 28.2 µM (inactive). The GI50 (HOP-62) was 45.9 µM (inactive), the GI50 (EKVX) was 2.22 µM (inactive) and the GI50 (MDA-MB-435) was 24.9 µM (inactive). The GI50 (OVCAR-5) was 44.3 µM (inactive), the GI50 (UACC-257) was 45.6 µM (inactive) and the GI50 (SR) was 19.1 µM (inactive). For the same compound, the GI50 (SF-268) was 32.1 µM (inactive), the GI50 (OVCAR-4) was 32.1 µM (inactive) and the GI50 (CAKI-1) was 21.5 µM (inactive). The GI50 (LOX IMVI) was 22.5 µM (inactive), the GI50 (A549) was 29 µM (inactive) and the GI50 (IGROV-1) was 14.7 µM (inactive). For the same compound, the GI50 (RXF 393) was 16.6 µM (inactive), the GI50 (SF-295) was 37.8 µM (inactive) and the GI50 (UO-31) was 30.2 µM (inactive). The GI50 (SNB-75) was 13 µM (inactive), the GI50 (SK-MEL-5) was 11 µM (inactive) and the GI50 (T47D) was 25.2 µM (inactive). For the same compound, the GI50 (SK-MEL-2) was 23 µM (inactive), the GI50 (HCT-15) was 30.8 µM and the GI50 (OVCAR-8) was 33.6 µM (inactive). The GI50 (Malme-3M) was 32.9 µM (inactive), the GI50 (MOLT-4) was 24.3 µM (inactive) and the GI50 (SNB-19) was 54.3 µM (inactive). The GI50 (NCI-H522) was 21.5 µM (inactive), the GI50 (PC-3) was 27.2 µM (inactive) and the GI50 (SN12C) was 36.5 µM (inactive). For the same compound, the GI50 (ACHN) was 32.1 µM (inactive), the GI50 (HT-29) was 29.9 µM (inactive) and the GI50 (DU-145) was 38 µM (inactive). The GI50 (HCT-116) was 24.7 µM (inactive), the GI50 (SK-OV-3) was 24.6 µM (inactive) and the GI50 (U-251) was 31.6 µM (inactive). For the same compound, the GI50 (HL-60) was 24.7 µM (inactive), the GI50 (COLO 205) was 13.2 µM (inactive) and the GI50 (786-0) was 36.1 µM (inactive). The GI50 (NCI-H460) was 28.2 µM (inactive), the GI50 (SF-539) was 18.5 µM (inactive) and the GI50 (RPMI-8226) was 30.1 µM (inactive). The GI50 (TK-10) was 27.6 µM (inactive), the GI50 (K562) was 28.9 µM (inactive) and the GI50 (A498) was 27.7 µM (inactive). For the same compound, the GI50 (KM12) was 28.2 µM (inactive), the GI50 (M14) was 44.3 µM (inactive) and the GI50 (CCRF-CEM) was 31.5 µM (inactive). For the same compound, the GI50 (SK-MEL-28) was 39.9 µM (inactive).

With CN(C)c1ccc(/C=N/NC(=S)Nc2ccccc2)cc1 the GI50 (SW-620) was > 100 µM (inactive), the GI50 (NCI/ADR-RES) was > 100 µM (inactive) and the GI50 (BT-549) was > 100 µM (inactive). The GI50 (Hs-578T) was > 100 µM (inactive), the GI50 (MDA-MB-231) was > 100 µM (inactive) and the GI50 (NCI-H226) was > 100 µM (inactive). For the same compound, the GI50 (NCI-H23) was > 100 µM (inactive), the GI50 (HOP-92) was > 100 µM (inactive) and the GI50 (OVCAR-3) was > 100 µM (inactive). For the same compound, the GI50 (HOP-62) was 96.4 µM (inactive), the GI50 (EKVX) was > 100 µM (inactive) and the GI50 (MDA-MB-435) was > 100 µM (inactive). The GI50 (OVCAR-5) was > 100 µM (inactive), the GI50 (MCF7) was > 100 µM (inactive) and the GI50 (UACC-257) was > 100 µM (inactive). The GI50 (SR) was > 100 µM (inactive), the GI50 (SF-268) was > 100 µM (inactive) and the GI50 (OVCAR-4) was > 100 µM (inactive). The GI50 (CAKI-1) was > 100 µM (inactive), the GI50 (LOX IMVI) was > 100 µM (inactive) and the GI50 (A549) was > 100 µM (inactive). The GI50 (IGROV-1) was > 100 µM (inactive), the GI50 (RXF 393) was > 100 µM (inactive) and the GI50 (UACC-62) was > 100 µM (inactive). The GI50 (SF-295) was > 100 µM (inactive), the GI50 (UO-31) was > 100 µM (inactive) and the GI50 (SNB-75) was > 100 µM (inactive). The GI50 (SK-MEL-5) was > 100 µM (inactive), the GI50 (T47D) was > 100 µM (inactive) and the GI50 (SK-MEL-2) was > 100 µM (inactive). For the same compound, the GI50 (HCT-15) was over 100 µM, the GI50 (OVCAR-8) was > 100 µM (inactive) and the GI50 (Malme-3M) was > 100 µM (inactive). For the same compound, the GI50 (MOLT-4) was > 100 µM (inactive), the GI50 (SNB-19) was > 100 µM (inactive) and the GI50 (NCI-H522) was > 100 µM (inactive). The GI50 (PC-3) was > 100 µM (inactive), the GI50 (SN12C) was > 100 µM (inactive) and the GI50 (ACHN) was > 100 µM (inactive). The GI50 (HT-29) was > 100 µM (inactive), the GI50 (DU-145) was > 100 µM (inactive) and the GI50 (HCT-116) was > 100 µM (inactive). For the same compound, the GI50 (SK-OV-3) was > 100 µM (inactive), the GI50 (U-251) was > 100 µM (inactive) and the GI50 (COLO 205) was > 100 µM (inactive). For the same compound, the GI50 (786-0) was > 100 µM (inactive), the GI50 (NCI-H460) was > 100 µM (inactive) and the GI50 (SF-539) was > 100 µM (inactive). For the same compound, the GI50 (RPMI-8226) was > 100 µM (inactive), the GI50 (TK-10) was > 100 µM (inactive) and the GI50 (K562) was > 100 µM (inactive). For the same compound, the GI50 (A498) was > 100 µM (inactive), the GI50 (KM12) was > 100 µM (inactive) and the GI50 (M14) was > 100 µM (inactive). For the same compound, the GI50 (CCRF-CEM) was > 100 µM (inactive) and the GI50 (SK-MEL-28) was > 100 µM (inactive).
